Results taken from patent EP0324390A2, “Nigericin derivatives, method for their preparation, compositions containing them and use of these compositions” (priority 1988, dated 1989).
In brackets after ≈: the same amount, converted by molar mass.

What was measured:
Experiment in all cases: Agar dilution test according to Lorian (antibacterial activity)
Type in all cases: cell-based
Strept. faecium (D) = tested on: Strept. faecium (D)
Protocol: (§1) Die antibakterielle Wirksamkeit der erfindungsgemäßen Verbindungen wurde im Agar-Verdünnungstest nach Lorian (Antibiotics in Laboratory Medicine, Williams & Wilkins, Baltimore/London, 1980) bestimmt. Dabei wurden die Präparate in einer geometrischen Verdünnungsreihe mit dem Faktor 2 in Müller Hinton Agar verdünnt. Eine Petrischale enthielt nur Müller Hinton Agar und diente zur Kontrolle des Bakterienwachstums. Die Petrischalen wurden dann mit einem Denley-Multipoint-Inokulator, welcher 0,6 ul einer 1 : 100 verdünnten 18-Stunden-Kultur der Testbakterien übertrug, mit den entsprechenden Testbakterien beimpft. Nach 16 bis 18 Stunden Inkubation bei 37^. C wurden die Petrischalen makroskopisch auf Bakterienwachstum untersucht.
(§2) Die niedrigste Konzentration der erfindungsgemäßen Verbindungen, welche das Bakterienwachstum noch vollständig verhinderte, wurde als MIC (Minimum Inhibitory Concentration) angenommen.
(§3) In Tabelle 4 ist die Wirkung (Angabe des MIC in µg/ml) von verschiedenen erfindungsgemäßen Verbindungen gegen folgende Bakterien aufgeführt: • Staph. aureus (SG 511), Staph. aureus (285), Staph. aureus (503), Strept. pyogenes (308 A), Strept pyogenes (77 A), Strept. faecium (D).

Staph. aureus (503) = tested on: Staph. aureus (503)
Protocol: as §1, §2, §3

Staph. aureus (285) = tested on: Staph. aureus (285)
Protocol: as §1, §2, §3

Staph. aureus (SG 511) = tested on: Staph. aureus (SG 511)
Protocol: as §1, §2, §3

Strept. pyogenes (77 A) = tested on: Strept. pyogenes (77 A)
Protocol: as §1, §2, §3

Strept. pyogenes (308 A) = tested on: Strept. pyogenes (308 A)
Protocol: as §1, §2, §3

[1] = Müller Hinton Agar, 16 to 18 h at 37 C, lowest concentration fully preventing growth

| SMILES | MIC (Strept. faecium (D); [1]) | MIC (Staph. aureus (503); [1]) | MIC (Staph. aureus (285); [1]) | MIC (Staph. aureus (SG 511); [1]) | MIC (Strept. pyogenes (77 A); [1]) | MIC (Strept. pyogenes (308 A); [1]) | MIC (Strept. faecium (D); Enterococcus faecium) | MIC (Staph. aureus (503); Staphylococcus aureus) | MIC (Staph. aureus (285); Staphylococcus aureus) | MIC (Staph. aureus (SG 511); Staphylococcus aureus) | MIC (Strept. pyogenes (77 A); Streptococcus pyogenes) | MIC (Strept. pyogenes (308 A); Streptococcus pyogenes) |
| --- | --- | --- | --- | --- | --- | --- | --- | --- | --- | --- | --- | --- |
| COC1CC(CC2CCC(C)C(C(C)C(=O)O)O2)OC2(OC(C)(C3CCC(C)(C4OC(C5OC(O)(COC(=O)Nc6ccc(Cl)cc6)C(C)CC5C)CC4C)O3)CC2C)C1C (stereo not drawn) [Beispiel 14] | 100,0 µg/ml | 50,0 µg/ml | 100,0 µg/ml | 100,0 µg/ml | 12,5 µg/ml | 25,0 µg/ml | – | – | – | – | – | – |
| COC1CC(CC2CCC(C)C(C(C)C(=O)O)O2)OC2(OC(C)(C3CCC(C)(C4OC(C5OC(O)(COS(=O)(=O)O)C(C)CC5C)CC4C)O3)CC2C)C1C (stereo not drawn) [Beispiel 15] | 3,13 µg/ml | 0,78 µg/ml | 1,56 µg/ml | 1,56 µg/ml | 0,78 µg/ml | 1,56 µg/ml | – | – | – | – | – | – |
| COC1CC(CC2CCC(C)C(C(C)C(=O)O)O2)OC2(OC(C)(C3CCC(C)(C4OC(C5OC(CO)(OC)C(C)CC5C)CC4C)O3)CC2C)C1C (stereo not drawn) [Beispiel 16] | 3,13 µg/ml | 1,56 µg/ml | 1,56 µg/ml | 1,56 µg/ml | 0,39 µg/ml | 0,39 µg/ml | – | – | – | – | – | – |
| CCOC1(CO)OC(C2CC(C)C(C3(C)CCC(C4(C)CC(C)C5(OC(CC6CCC(C)C(C(C)C(=O)O)O6)CC(OC)C5C)O4)O3)O2)C(C)CC1C (stereo not drawn) [Beispiel 17] | 1,56 µg/ml | 0,78 µg/ml | 1,56 µg/ml | 1,56 µg/ml | 0,098 µg/ml | 0,098 µg/ml | – | – | – | – | – | – |
| COC1CC(CC2CCC(C)C(C(C)C(=O)O)O2)OC2(OC(C)(C3CCC(C)(C4OC(C5OC(COS(C)(=O)=O)(OC)C(C)CC5C)CC4C)O3)CC2C)C1C (stereo not drawn) [Beispiel 20] | – | – | – | – | – | – | 25 µg/mL (≈ 30.6 µM) | 12.5 µg/mL (≈ 15.3 µM) | 25 µg/mL (≈ 30.6 µM) | 25 µg/mL (≈ 30.6 µM) | 6.25 µg/mL (≈ 7.65 µM) | 6.25 µg/mL (≈ 7.65 µM) |
| COC1CC(CC2CCC(C)C(C(C)C(=O)O)O2)OC2(OC(C)(C3CCC(C)(C4OC(C5OC(O)(COC(=O)C=C(C)C(=O)O)C(C)CC5C)CC4C)O3)CC2C)C1C (stereo not drawn) [Beispiel 22] | – | – | – | – | – | – | 6.25 µg/mL (≈ 7.47 µM) | 6.25 µg/mL (≈ 7.47 µM) | 6.25 µg/mL (≈ 7.47 µM) | 6.25 µg/mL (≈ 7.47 µM) | 0.78 µg/mL (≈ 0.932 µM) | 0.78 µg/mL (≈ 0.932 µM) |
| COC1CC(CC2CCC(C)C(C(C)C(=O)O)O2)OC2(OC(C)(C3CCC(C)(C4OC(C5OC(O)(COC(=O)C=CC(=O)O)C(C)CC5C)CC4C)O3)CC2C)C1C (stereo not drawn) [Beispiel 23] | – | – | – | – | – | – | 0.39 µg/mL (≈ 0.474 µM) | – | – | – | – | – |
| COC1CC(CC2CCC(C)C(C(C)C(=O)O)O2)OC2(OC(C)(C3CCC(C)(C4OC(C5OC(O)(COC(=O)C(C)C)C(C)CC5C)CC4C)O3)CC2C)C1C (stereo not drawn) [Beispiel 27] | – | – | – | – | – | – | > 100 µg/mL | 0.19 µg/mL (≈ 0.239 µM) | 0.39 µg/mL (≈ 0.491 µM) | 0.39 µg/mL (≈ 0.491 µM) | – | – |
| COC1CC(CC2CCC(C)C(C(C)C(=O)O)O2)OC2(OC(C)(C3CCC(C)(C4OC(C5OC(O)(COC(=O)c6c(Br)c(Br)c(Br)c(Br)c6C(=O)O)C(C)CC5C)CC4C)O3)CC2C)C1C (stereo not drawn) [Beispiel 29] | – | – | – | – | – | – | 3.13 µg/mL (≈ 2.63 µM) | 1.56 µg/mL (≈ 1.31 µM) | 3.13 µg/mL (≈ 2.63 µM) | 1.56 µg/mL (≈ 1.31 µM) | – | – |
| CCCCCCCCCCCCCCCCCCCCCC(=O)OCC1(O)OC(C2CC(C)C(C3(C)CCC(C4(C)CC(C)C5(OC(CC6CCC(C)C(C(C)C(=O)O)O6)CC(OC)C5C)O4)O3)O2)C(C)CC1C (stereo not drawn) [Beispiel 30] | – | – | – | – | – | – | 100 µg/mL (≈ 95.5 µM) | 50 µg/mL (≈ 47.7 µM) | 100 µg/mL (≈ 95.5 µM) | 100 µg/mL (≈ 95.5 µM) | 25 µg/mL (≈ 23.9 µM) | 25 µg/mL (≈ 23.9 µM) |
| COC1CC(CC2CCC(C)C(C(C)C(=O)O)O2)OC2(OC(C)(C3CCC(C)(C4OC(C5OC(O)(COC(=O)c6ccccc6C(=O)O)C(C)CC5C)CC4C)O3)CC2C)C1C (stereo not drawn) [Beispiel 31] | – | – | – | – | – | – | – | 0.78 µg/mL (≈ 0.893 µM) | 0.78 µg/mL (≈ 0.893 µM) | 0.78 µg/mL (≈ 0.893 µM) | – | – |
| COC1CC(CC2CCC(C)C(C(C)C(=O)[O-])O2)OC2(OC(C)(C3CCC(C)(C4OC(C5OC(O)(CO)C(C)CC5C)CC4C)O3)CC2C)C1C.[K+] (stereo not drawn) [Beispiel 34] | 0,098 µg/ml | < 0,002 µg/ml | 0,025 µg/ml | 0,025 µg/ml | < 0,002 µg/ml | < 0,002 µg/ml | – | – | – | – | – | – |
| COC1CC(CC2CCC(C)C(C(C)C(=O)[O-])O2)OC2(OC(C)(C3CCC(C)(C4OC(C5OC(O)(COC(=O)CCC(=O)[O-])C(C)CC5C)CC4C)O3)CC2C)C1C.[Mg+2] (stereo not drawn) [Beispiel 37] | 0,098 µg/ml | 0,049 µg/ml | 0,098 µg/ml | 0,098 µg/ml | 0,007 µg/ml | 0,007 µg/ml | – | – | – | – | – | – |
